Data from patent publication US20120295838A1, “Selective poly-substituted glycine antibiotics and related compositions” (priority 2008, published 2012).
Square brackets hold non-standard residues; d marks the D form. Peptide text beside a SMILES is read from it. Nspe = C[C@H](NCC(=O)O)c1ccccc1; Nlys = NCCCCNCC(=O)O

Assays:
E. coli ATCC 35218 = type: cell-based; settings: ATCC 35218
Protocol: (§1) Whereas the preceding generation of molecules was designed to elucidate structure function relationships of specific molecular parameters (chirality, length, hydrophobicity, etc.), another generation compounds were designed explicitly to explore effects on selectivity. Antimicrobial activity of these compounds was tested against bacterial strains E. coli (ATTC 35218) and B. subtilis (ATTC 6633) in cation-adjusted MHB using the microdilution protocols previously described. The sequences, antimicrobial activities, hemolytic activities, and metabolic inhibitory concentrations against NIH 3T3 mouse fibroblast cells are summarized in Table 3 and the rationale of their design is described below.
(§2) Screening antibacterial assays. MICs were determined in 96-well microtiter plates in accordance with CLSI M7-A6 protocols. Peptoid solutions with 50 μL total volume were prepared using 2:1 serial dilutions. 50 i—tL of bacteria inoculum (1×10^6 CFU/mL) prepared in cation-adjusted Mueller-Hinton broth (CAMHB) was added to test wells. Control wells contained 100 μL MHB (no growth) or 50 μL inoculums with 50 μL MHB with no peptoid. […] Reported values were reproducible over three experiments, each containing two parallel trials.
(§3) Antibacterial Assays for Compositions. MICs were determined according to CLSI M7-A6 protocols in a 96-well microtiter plate. In test wells, 50 μL bacterial inoculum (1×10^6 CFU/ml) in cation-adjusted Mueller-Hinton broth (CAMHB) was added to 50 μL peptoid solution in CAMHB (prepared by 1:2 serial dilutions). Positive controls contained 50 μL inoculum and 50 μL CAMHB without peptoid. […] MIC values reported were reproducible between three independent experimental replicates, each consisting of two parallel trials.

B. subtilis ATCC 6633 = type: cell-based; settings: ATCC 6633
Protocol: as §1, §2, §3

human erythrocytes = assay: Hemolysis assay; type: cell-based
Protocol: (§4) Hemolysis assays. Erythrocytes were isolated from freshly drawn, heparanized human blood and resuspended to 20 vol % in PBS (pH 7.4). In a 96-well microtiter plate, 100 μL erythrocyte suspension was added to 100 uL peptoid solution in PBS (prepared by 1:2 serial dilutions), or 100 μL PBS in the case of negative controls. 100% hemolysis wells contained 100 μL, blood cell suspension with 100 μL 0.2 vol % Triton X-100. The plate was incubated for 1 h at 37° C., then each well was diluted with 1504 PBS. The plate was then centrifuged at 1200 g for 15 min, 100 μL of the supernatant from each well transferred to a fresh microtiter plate, and A350 measured.
Hemolysis assays. Erythrocytes were isolated from freshly drawn, heparanized human blood and resuspended in PBS (pH 7.4) to make a 20% volume suspension. Peptoid solutions were prepared by serial dilution (2:1) in a 96-well microtiter plate. For test wells, 100 μLL of erythrocyte suspension was added to 100 μL of peptoid solution in PBS; PBS without peptoid was used as the negative control and 0.2 vol % Triton X-100 as the positive control that indicates 100% hemolysis. After 1 hour incubation at 37° C., each well was diluted with 150 μL PBS. Plates were then centrifuged at 1,200×g for 15 minutes to pellet the cells. 30 μL of the supernatant from each well were transferred to the corresponding well of a second 96-well plate that contains 70 μL PBS.
as §4, with “assays for Compositions.” for “assays.”, “100” for “100 uL”, “μL” for “μL,”, “150 μL” for “1504”, “1200g” for “1200 g”

MTS assay, NIH 3T3 cells = type: cell-based, mouse; settings: mouse, NIH 3T3 fibroblast cells
Protocol: The potencies of all compounds were determined against representative Gram-negative (E. coli ATCC 35218) and Gram-positive (B. subtilis ATCC 6633) biosafety level 1 (BSL1) organisms. In addition to hemolytic activity, the conventional measure of toxicity to mammalian cells, the effect of each ampetoid on NIH 3T3 mouse fibroblast cells was determined using the MTS tetrazolium salt-based colorimetric assay. While hemolysis measures the degree to which erythrocytes are lysed, the MTS assay indirectly quantifies the extent to which cellular metabolic activity is inhibited.
MTS assays. NIH/3T3 cells (ATCC Corporation) cultured at 37° C. and 5% CO2 in complete Dulbecco's modified eagle's media (CDMEM) supplemented with 1% sodium pyruvate, 1% penicillin-streptomycin, 1.5 g/L NaHCO3, and 10% fetal bovine serum. Cells were seeded at a density of 5,000 cells per well for NIH/3T3 cells in 96-well plates (100 μl total volume). A peptoid solution plate (100 μL total volume per well) was prepared by serial dilution of aqueous peptoid stock solution in Hank's balanced salt solution (HBSS) media. The day-old cell monolayers were washed with HBSS and media was replaced with 100 μL HBSS. The contents of the peptoid solution plate were transferred onto corresponding wells of the cell monolayer plate, and 40 μL MTS reagent (Promega, Inc.) was added to each well. After incubating for 3 hours at 37° C., absorbance at 490 nm was determined. […] The average of six replicates is reported.

MIC for E. coli ATCC 35218 (E. coli ATCC 35218) [µM] | MIC for B. subtilis ATCC 6633 (B. subtilis ATCC 6633) [µM] | E. coli MIC (E. coli ATCC 35218) [µM] | SMILES | HD10 (human erythrocytes) [µM] | HD50 (human erythrocytes) [µM] | HD10 (10% hemolytic dose) (human erythrocytes; red cells of human, 1 h) [µM] | HD50 (50% hemolytic dose) (human erythrocytes; red cells of human, 1 h) [µM] | CC50 at 3 h (MTS assay, NIH 3T3 cells) [µM]
25 to 50 | 0.78 to 1.6 | – | C[C@@H](c1ccc2ccccc2c1)N(CC(N)=O)C(=O)CN(C(=O)CN(CCCCN)C(=O)CN(C(=O)CN(C(=O)CN(CCCCN)C(=O)CN(C(=O)CN(C(=O)CN(CCCCN)C(=O)CN(C(=O)CN(C(=O)CNCCCCN)[C@@H](C)c1ccccc1)[C@@H](C)c1ccccc1)[C@@H](C)c1ccccc1)[C@@H](C)c1ccc2ccccc2c1)[C@@H](C)c1ccccc1)[C@@H](C)c1ccccc1)[C@@H](C)c1ccccc1 [1-Nsna6,12, H-(Nlys-Nspe-Nspe-Nlys-Nspe-Nsna)2-NH2] | 7 | 27 | 4 | 22 | –
– | – | >100 | C[C@H](NCC(=O)N(CCCCN)CC(=O)N(CC(=O)N(CCCCN)CC(=O)N(CCCCN)CC(=O)N(CCCCN)CC(=O)N(CC(=O)N(CCCCN)CC(=O)N(CC(=O)N(CCCCN)CC(=O)N(CCCCN)CC(=O)N(CC(=O)N(CC(=O)N(CCCCN)CC(=O)N(CC(N)=O)[C@@H](C)c1ccccc1)[C@@H](C)c1ccccc1)[C@@H](C)c1ccccc1)[C@@H](C)c1ccccc1)[C@@H](C)c1ccccc1)[C@@H](C)c1ccccc1)c1ccccc1 [1B15 mer-Nlys4,6,10, H-Nspe-Nlys-Nspe-Nlys-Nlys-Nlys-Nspe-Nlys-Nspe-Nlys-Nlys-Nspe-Nspe-Nlys-Nspe-NH2] (H-[Nspe][Nlys][Nspe][Nlys][Nlys][Nlys][Nspe][Nlys][Nspe][Nlys][Nlys][Nspe][Nspe][Nlys][Nspe]-NH2) | – | – | – | – | 40
– | – | 50 | C[C@H](NCC(=O)N(CCCCN)CC(=O)N(CC(=O)N(CCCCN)CC(=O)N(CCCCN)CC(=O)N(CC(=O)N(CC(=O)N(CCCCN)CC(=O)N(CC(=O)N(CCCCN)CC(=O)N(CCCCN)CC(=O)N(CC(=O)N(CC(=O)N(CCCCN)CC(=O)N(CC(N)=O)[C@@H](C)c1ccccc1)[C@@H](C)c1ccccc1)[C@@H](C)c1ccccc1)[C@@H](C)c1ccccc1)[C@@H](C)c1ccccc1)[C@@H](C)c1ccccc1)[C@@H](C)c1ccccc1)c1ccccc1 [1B15 mer-Nlys4,10, H-(Nspe-Nlys-Nspe-Nlys-Nlys-Nspe)2-Nspe-Nlys-Nspe-NH2] (H-[Nspe][Nlys][Nspe][Nlys][Nlys][Nspe][Nspe][Nlys][Nspe][Nlys][Nlys][Nspe][Nspe][Nlys][Nspe]-NH2) | – | – | – | – | 16
– | – | 6.3 | C[C@H](NCC(=O)N(CCCCN)CC(=O)N(CC(=O)N(CC(=O)N(CCCCN)CC(=O)N(CC(=O)N(CC(=O)N(CCCCN)CC(=O)N(CC(=O)N(CC(=O)N(CCCCN)CC(=O)N(CC(N)=O)[C@@H](C)c1ccccc1)[C@@H](C)c1ccccc1)[C@@H](C)c1ccccc1)[C@@H](C)c1ccccc1)[C@@H](C)c1ccccc1)[C@@H](C)c1ccccc1)[C@@H](C)c1ccccc1)c1ccccc1 [1B, H-(Nspe-Nlys-Nspe)4-NH2] (H-[Nspe][Nlys][Nspe][Nspe][Nlys][Nspe][Nspe][Nlys][Nspe][Nspe][Nlys][Nspe]-NH2) | 55 | – | – | – | 4.9
– | – | 6.3 | C[C@H](NCC(=O)N(CC(=O)N(CCCCN)CC(=O)N(CC(=O)N(CC(=O)N(CCCCN)CC(=O)N(CC(=O)N(CC(=O)N(CCCCN)CC(=O)N(CC(=O)N(CC(=O)N(CCCCN)CC(N)=O)[C@@H](C)c1ccccc1)[C@@H](C)c1ccccc1)[C@@H](C)c1ccccc1)[C@@H](C)c1ccccc1)[C@@H](C)c1ccccc1)[C@@H](C)c1ccccc1)[C@@H](C)c1ccccc1)c1ccccc1 [1C, H-(Nspe-Nspe-Nlys)4-NH2] (H-[Nspe][Nspe][Nlys][Nspe][Nspe][Nlys][Nspe][Nspe][Nlys][Nspe][Nspe][Nlys]-NH2) | 25 | – | – | – | 5.6
– | – | 6.3 | C[C@H](NCC(=O)N(CC(=O)N(CCCCN)CC(=O)N(CC(=O)N(CCCCN)CC(=O)N(CC(=O)N(CCCCN)CC(=O)N(CC(=O)N(CC(=O)N(CC(=O)N(CC(=O)N(CCCCN)CC(N)=O)[C@@H](C)c1ccccc1)[C@@H](C)c1ccccc1)[C@@H](C)c1ccccc1)[C@@H](C)c1ccccc1)[C@@H](C)c1ccccc1)[C@@H](C)c1ccccc1)[C@@H](C)c1ccccc1)c1ccccc1 [1scr, H-(Nspe)2-(Nlys-Nspe)3-(Nspe)3-Nlys-NH2] (H-[Nspe][Nspe][Nlys][Nspe][Nlys][Nspe][Nlys][Nspe][Nspe][Nspe][Nspe][Nlys]-NH2) | 64 | – | – | – | 8.5
– | – | 12.5 | C[C@@H](c1ccccc1)N(CC(=O)N(CCCCN)CC(=O)N(CC(=O)N(CC(=O)N(CCCCN)CC(=O)N(CC(=O)N(CC(=O)N(CCCCN)CC(N)=O)[C@@H](C)c1ccccc1)[C@@H](C)c1ccccc1)[C@@H](C)c1ccccc1)[C@@H](C)c1ccccc1)C(=O)CN(C(=O)CNCCCCN)[C@@H](C)c1ccccc1 [110 mer, H-(Nlys-Nspe-Nspe)3-Nlys-NH2] (H-[Nlys][Nspe][Nspe][Nlys][Nspe][Nspe][Nlys][Nspe][Nspe][Nlys]-NH2) | > 200 | – | – | – | 54
– | – | 6.3 | C[C@@H](c1ccccc1)N(CC(N)=O)C(=O)CN(CCCCN)C(=O)CN(C(=O)CN(C(=O)CN(CCCCN)C(=O)CN(C(=O)CN(C(=O)CN(CCCCN)C(=O)CN(C(=O)CN(C(=O)CNCCCCN)[C@@H](C)c1ccccc1)[C@@H](C)c1ccccc1)[C@@H](C)c1ccccc1)[C@@H](C)c1ccccc1)[C@@H](C)c1ccccc1)[C@@H](C)c1ccccc1 [111 mer, H-(Nlys-Nspe-Nspe)3-Nlys-Nspe-NH2] (H-[Nlys][Nspe][Nspe][Nlys][Nspe][Nspe][Nlys][Nspe][Nspe][Nlys][Nspe]-NH2) | – | – | – | – | 11
– | – | 3.1 | C[C@@H](c1ccccc1)N(CC(=O)N(CCCCN)CC(=O)N(CC(=O)N(CC(=O)N(CCCCN)CC(=O)N(CC(=O)N(CC(=O)N(CCCCN)CC(=O)N(CC(=O)N(CC(=O)N(CCCCN)CC(N)=O)[C@@H](C)c1ccccc1)[C@@H](C)c1ccccc1)[C@@H](C)c1ccccc1)[C@@H](C)c1ccccc1)[C@@H](C)c1ccccc1)[C@@H](C)c1ccccc1)C(=O)CN(C(=O)CNCCCCN)[C@@H](C)c1ccccc1 [113 mer, H-(Nlys-Nspe-Nspe)4-Nlys-NH2] (H-[Nlys][Nspe][Nspe][Nlys][Nspe][Nspe][Nlys][Nspe][Nspe][Nlys][Nspe][Nspe][Nlys]-NH2) | – | – | – | – | 5.6
